Literature values as cited in publication PMC5263201, “GABAA receptor occupancy by subtype selective GABAAα2,3 modulators: PET studies in humans” (Psychopharmacology, 2016).
Where two headings read alike, the source gives them in different places.

Legend:
GABAA α1β2γ2 = system: GABAA α1β2γ2; design: method as in Christian et al 2015; settings: 1µM test concentration, GABA EC10, % of 1 µM diazepam, mean ±SE, ref Christian et al 2015; cited from earlier work
[1] = ref Atack et al 2010a; cited from earlier work
GABAA receptor [2] = settings: cited from earlier work; for Receptor occupancy: ref Atack et al 2010a
[3] = molecular target: human recombinant GABAA receptors containing β3, γ2 plus α5; design: method as in Atack et al 2010a; settings: L(tk-) cells, human recombinant β3γ2 plus α5; mean (SEM); ref Atack et al 2010a; read-out: Affinity in vitro at BZ binding site (Ki) α5; cited from earlier work
GABAA α3β3γ2 = system: GABAA α3β3γ2; design: method as in Christian et al 2015; settings: 1µM test concentration, GABA EC10, % of 1 µM diazepam, mean ±SE, ref Christian et al 2015; cited from earlier work
GABAA α5β3γ2 = system: GABAA α5β3γ2; design: method as in Christian et al 2015; settings: 1µM test concentration, GABA EC10, % of 1 µM diazepam, mean ±SE, ref Christian et al 2015; cited from earlier work
[4] = system: human recombinant GABAA receptors containing β3γ2 plus α3; design: method as in Atack et al 2010; settings: maximum potentiation of GABA EC20 currents relative to chlordiazepoxide; ref Atack et al 2010; cited from earlier work
[5] = molecular target: human recombinant GABAA receptors containing β3, γ2 plus α1; design: method as in Atack et al 2010a; settings: L(tk-) cells, human recombinant β3γ2 plus α1; mean (SEM); ref Atack et al 2010a; read-out: Affinity in vitro at BZ binding site (Ki) α1; cited from earlier work
[6] = system: human recombinant GABAA receptors containing β3γ2 plus α5; design: method as in Atack et al 2010; settings: maximum potentiation of GABA EC20 currents relative to chlordiazepoxide; ref Atack et al 2010; cited from earlier work
[7] = molecular target: human recombinant GABAA receptors containing β3, γ2 plus α2; design: method as in Atack et al 2010a; settings: L(tk-) cells, human recombinant β3γ2 plus α2; mean (SEM); ref Atack et al 2010a; read-out: Affinity in vitro at BZ binding site (Ki) α2; cited from earlier work
[8] = molecular target: human recombinant GABAA receptors containing β3, γ2 plus α3; design: method as in Atack et al 2010a; settings: L(tk-) cells, human recombinant β3γ2 plus α3; mean (SEM); ref Atack et al 2010a; read-out: Affinity in vitro at BZ binding site (Ki) α3; cited from earlier work
[9] = system: human recombinant GABAA receptors containing β3γ2 plus α1; design: method as in Atack et al 2010; settings: ref Atack et al 2010, cited from earlier work; for Relative efficacy (%CDP) α1: maximum potentiation of GABA EC20 currents relative to chlordiazepoxide
GABAA α2β3γ2 = system: GABAA α2β3γ2; design: method as in Christian et al 2015; settings: 1µM test concentration, GABA EC10, % of 1 µM diazepam, mean ±SE, ref Christian et al 2015; cited from earlier work
[10] = system: human recombinant GABAA receptors containing β3γ2 plus α2; design: method as in Atack et al 2010; settings: maximum potentiation of GABA EC20 currents relative to chlordiazepoxide; ref Atack et al 2010; cited from earlier work
[11] = molecular target: BZ binding site, hippocampus synaptosomal membranes; design: method as in Dubinsky et al 2002; settings: (e) rat brain synaptosomal membranes; [3H]Ro15-4513; ref Dubinsky et al 2002; read-out: Affinity in vitro at BZ binding site (Ki), hippocampus; cited from earlier work
GABAA receptor α2 = molecular target: GABAA receptor α2; design: method as in Sieghart 1995; settings: (d) review; ref Sieghart 1995; read-out: Affinity in vitro at BZ binding site (Ki) α2; cited from earlier work
GABAA receptor α5 = molecular target: GABAA receptor α5; design: method as in Sieghart 1995; settings: (d) review; ref Sieghart 1995; read-out: Affinity in vitro at BZ binding site (Ki) α5; cited from earlier work
GABAA receptor α3 = molecular target: GABAA receptor α3; design: method as in Sieghart 1995; settings: (d) review; ref Sieghart 1995; read-out: Affinity in vitro at BZ binding site (Ki) α3; cited from earlier work
GABAA α4 and α6 subunits = molecular target: GABAA α4 and α6 subunits; design: method as in Sieghart 1995; settings: ref Sieghart 1995; read-out: K i for the α4 and α6 subunits; cited from earlier work
[12] = molecular target: GABAA α1, α2, α3, and α5 subunits; design: method as in Sieghart 1995; settings: ref Sieghart 1995; read-out: K i for the GABAA α1, α2, α3, and α5 subunits; cited from earlier work
[13] = molecular target: human recombinant GABAA receptors containing β3, γ2 plus α2; design: method as in Atack et al 1999; settings: (c) human recombinant β3γ2 plus α2; [3H]Ro 15-1788; ref Atack et al 1999; read-out: Affinity in vitro at BZ binding site (Ki) α2; cited from earlier work
[14] = system: human α5β2γ2 GABAA receptors; design: method as in Sanna et al 2002; settings: GABA-evoked Cl- currents, means ±SE, ref Sanna et al 2002; cited from earlier work
[15] = molecular target: human recombinant GABAA receptors containing β3, γ2 plus α5; design: method as in Atack et al 1999; settings: (c) human recombinant β3γ2 plus α5; [3H]Ro 15-1788; ref Atack et al 1999; read-out: Affinity in vitro at BZ binding site (Ki) α5; cited from earlier work
[16] = system: human α2β2γ2 GABAA receptors; design: method as in Sanna et al 2002; settings: GABA-evoked Cl- currents, means ±SE, ref Sanna et al 2002; cited from earlier work
GABAA receptor α1 = molecular target: GABAA receptor α1; design: method as in Sieghart 1995; settings: (d) review; ref Sieghart 1995; read-out: Affinity in vitro at BZ binding site (Ki) α1; cited from earlier work
[17] = molecular target: human recombinant GABAA receptors containing β3, γ2 plus α1; design: method as in Atack et al 1999; settings: (c) human recombinant β3γ2 plus α1; [3H]Ro 15-1788; ref Atack et al 1999; read-out: Affinity in vitro at BZ binding site (Ki) α1; cited from earlier work
[18] = molecular target: human recombinant GABAA receptors containing β3, γ2 plus α3; design: method as in Atack et al 1999; settings: (c) human recombinant β3γ2 plus α3; [3H]Ro 15-1788; ref Atack et al 1999; read-out: Affinity in vitro at BZ binding site (Ki) α3; cited from earlier work
[19] = system: human α1β2γ2 GABAA receptors; design: method as in Sanna et al 2002; settings: GABA-evoked Cl- currents, means ±SE, ref Sanna et al 2002; cited from earlier work
[20] = system: human α3β2γ2 GABAA receptors; design: method as in Sanna et al 2002; settings: GABA-evoked Cl- currents, means ±SE, ref Sanna et al 2002; cited from earlier work
GABAA receptor [21] = system: GABAA receptor; design: method as in Bottlaender et al 1994; settings: In NHP; corresponds to 4-500 µg/kg; ref Bottlaender et al 1994; cited from earlier work

Compound | maximum tolerated dose (MTD) [1] | Ki [3] | Relative efficacy (%CDP) α3 [4] | Ki [5] | Relative efficacy (%CDP) α5 [6] | Ki [7] | Ki [8] | Relative efficacy (%CDP) α1 [9] | Relative efficacy (%CDP) α2 [10] | Ki [11] | Ki (GABAA receptor α2) | Ki (GABAA receptor α3) | further results
CCn1ncnc1COc1nn2c(-c3ccccc3F)nnc2cc1C(C)(C)C [TPA-023, 7-(1,1-dimethylethyl)-6-(2-ethyl-2H-1,2,4-triazol-3-ylmethoxy)-3-(2-fluorophenyl)-1,2,4-triazolo[4,3-b]pyridazine] | 2 mg | 0.41 nM | 21% | 0.27 nM | 5% | 0.31 nM | 0.19 nM | 0% | 11% | – | – | – | Relative efficacy (%DZ) α1 (GABAA α1β2γ2): 5±3%; Receptor occupancy (GABAA receptor [2]; at 2mg, MTD): 35-65%; receptor occupancy with lack of overt sedation (GABAA receptor [2]; ref Atack et al. 2010, 2011a,b): up to 50%; Relative efficacy (%DZ) α3 (GABAA α3β3γ2): 17±1%; Relative efficacy (%DZ) α5 (GABAA α5β3γ2): 6±4%; comment on intrinsic activity at α1 [9]: Christian et al 2015 Atack et al 2010 /antagonist at α1; Relative efficacy (%DZ) α2 (GABAA α2β3γ2): 15±2%
O=C1Nc2ccc(Cl)cc2C(c2ccccc2Cl)=NC1O (centres unmarked) [Lorazepam] | – | – | – | – | – | – | – | – | – | 8.6 nM | – | – | Receptor occupancy (RO) (GABAA receptor [2]; 2 mg, ref Lindfors-Hughes et al 2005, Atack et al 2010b): RO: ≤10% (2 mg) / Lindfors-Hughes et al 2005, Atack et al 2010b Affinity: Dubinsky et al 2002
CN1C(=O)CN=C(c2ccccc2)c2cc(Cl)ccc21 [Diazepam] | – | – | – | – | – | – | – | – | – | 12.6 nM | 16.9 nM | 17 nM | Receptor occupancy (RO) (GABAA receptor [2]; at 30mg, sedation, ref Pauli et al 1992): RO:24%, at 30mg, sedation/ Pauli et al 1992 Affinity: c) Atack et al 1999, d) Sieghart 1995;; Ki (GABAA receptor α5): 14.9 nM
CCOC(=O)c1ncn2c1CN(C)C(=O)c1cc(F)ccc1-2 [Flumazenil] | – | – | – | – | – | – | – | – | – | – | – | – | Ki (GABAA α4 and α6 subunits): ~150 nM; Ki [12]: ~1 nM
Cc1nnc2n1-c1ccc(Cl)cc1C(c1ccccc1)=NC2 [Alprazolam] | – | – | – | – | – | – | – | – | – | 5 nM | – | – | Receptor occupancy (RO) (GABAA receptor [2]; 2mg/day, sedation, ref Fujita et al 1999): RO:16% (2mg/day, sedation) /Fujita et al 1999 Affinity: Dubinsky et al 2002
CC(C)(O)c1cnn2c(-c3ccc(F)c(-c4c(F)cccc4C#N)c3)cnc2n1 [TPA-023B] | 2 mg | 1.1 ± 0.2 nM | 50±2% | 0.73 ± 0.21 nM | 37±4% | 2 ± 0.4 nM | 1.8 ± 0.4 nM | 3±1% | 38±4% | – | – | – | Receptor occupancy (GABAA receptor [2]; at 1.5 mg): 53%
Cc1ccc(-c2nc3ccc(C)cn3c2CC(=O)N(C)C)cc1 [Zolpidem] | – | – | – | – | – | – | – | – | – | – | 291 nM | 357 nM | Receptor occupancy (RO) (GABAA receptor [2]; 20mg, drowsiness, ref Abadie et al 1996): 21%; Receptor occupancy (RO) (GABAA receptor [2]; at 10mg therapeutic dose, ref Abadie et al 1996): 15%; Ki [13]: 160 nM; Relative efficacy (%) α5, maximal percentage potentiation [14]: 15±5%; Ki [15]: > 10000 nM; Relative efficacy (%) α2, maximal percentage potentiation [16]: 198±20%; Ki (GABAA receptor α1): 17 nM; Ki [17]: 27 nM; Ki [18]: 380 nM; Relative efficacy (%) α1, maximal percentage potentiation [19]: 100±5%; Relative efficacy (%) α3, maximal percentage potentiation [20]: 217±34%
Cc1nnc2n1-c1ccc(Cl)cc1C(c1ccccc1Cl)=NC2 [Triazolam] | – | – | – | – | – | – | – | – | – | – | 1.2 ± 0.2 nM | 3 ± 0.7 nM | Relative efficacy (%) α5, maximal percentage potentiation [14]: 165±8%; Relative efficacy (%) α2, maximal percentage potentiation [16]: 255±11%; Receptor occupancy (RO) (GABAA receptor [21]): In NHP: 5-100% RO corresponds to 4-500 µg/kg/ Bottlaender et al 1994 Affinity: Sieghart 1995; Ki (GABAA receptor α1): 1.8 ± 0.4 nM; Ki (GABAA receptor α5): 1.2 ± 0.3 nM; Relative efficacy (%) α1, maximal percentage potentiation [19]: 132±6%; Relative efficacy (%) α3, maximal percentage potentiation [20]: 270±13%
MRK-409 | 1 mg | 0.23 ± 0.04 nM | 45% | 0.22 ± 0.02 nM | 18% | 0.4 ± 0.07 nM | 0.21 ± 0.03 nM | 18% | 23% | – | – | – | Receptor occupancy (GABAA receptor [2]; at 1mg, MTD): < 10%; receptor occupancy at severe sedation (GABAA receptor [2]; ref Atack et al. 2010, 2011a,b): < 10%; comment on intrinsic activity at α1 [9]: Atack et al 2010/weak partial agonist at α1
